From patent publication US20210018841A1, “COMPOSITION FOR RESIST UNDERLAYER FILM FORMATION AND PATTERN FORMATION METHOD” (Mitsubishi Gas Chemical Company, Inc., priority 2018, published 2021) come the findings set out here.

The structures appear in SMILES notation.

This data set is described as follows: Solubility in a safe solvent (PGMEA). The data set is classed as physicochemical. To be noted: ultrasonic waves at 23° C. for 30 minutes, visually observed.

Experimental: The solubility of an obtained compound in a safe solvent (propylene glycol monomethyl ether acetate (PGMEA)) was evaluated as follows. The compound was precisely weighed in a test tube, and PGMEA was added to a predetermined concentration. Next, ultrasonic waves were applied at 23° C. for 30 minutes with an ultrasonic cleaning machine, and the subsequent state of the liquid was visually observed. The concentration (% by mass) at which the compound was completely dissolved was defined as the amount of dissolution. […] B: amount of dissolution was 3.0% by mass or more and 5.0% by mass or less. C: amount of dissolution was less than 3.0% by mass.

In the case of `CCO[Te](OCC)(OCC)OCC` [TOX-1, tetraethoxytellurium(IV)], the “Solubility of tellurium containing compound” value is reported as “A (amount of dissolution was 5.0% by mass or more)”.
